Measured values published in ChEMBL document CHEMBL1201862, “PubChem BioAssay data set” (2004).
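Assay format: 96-well plates, 48-hour exposure. GI50 marks 50% less growth.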 Activity calls are given as the source filed them. No stated cut-off is given here; in the data, active = GI50 up to about 1.1 µM and inactive = higher.

Columns and labels:
Test in all cases: inhibition of tumour cell growth, NCI panel, 48 h
RXF 393 = system: RXF 393
SN12C = system: SN12C
UACC-62 = system: UACC-62
CAKI-1 = system: CAKI-1
SNB-19 = system: SNB-19
786-0 = system: 786-0
UACC-257 = system: UACC-257
K562 = system: K562
KM12 = system: KM12
LXFL 529 = system: LXFL 529
MOLT-4 = system: MOLT-4
SF-268 = system: SF-268
A549 = system: A549
SK-MEL-5 = system: SK-MEL-5
RPMI-8226 = system: RPMI-8226
MDA-N = system: MDA-N
MDA-MB-435 = system: MDA-MB-435
PC-3 = system: PC-3
Hs-578T = system: Hs-578T
NCI/ADR-RES = system: NCI/ADR-RES

Measured: GI50

CN(C)CCn1cnc2sc3ccccc3c21
inactive: RXF 393 82.8 µM | SN12C > 100 µM | UACC-62 > 100 µM | CAKI-1 95.3 µM | SNB-19 > 100 µM | 786-0 > 100 µM | UACC-257 > 100 µM | K562 > 100 µM | KM12 > 100 µM | LXFL 529 > 100 µM | MOLT-4 > 100 µM | SF-268 > 100 µM | A549 > 100 µM | SK-MEL-5 > 100 µM

Cc1ccc(S(=O)(=O)C(C#N)c2nc3ccccc3nc2-n2ccnc2)cc1 (stereo not drawn)
inactive: SN12C > 100 µM | SNB-19 > 100 µM | 786-0 > 100 µM | UACC-257 > 100 µM | K562 > 100 µM | KM12 > 100 µM | LXFL 529 > 100 µM | MOLT-4 > 100 µM | SF-268 > 100 µM | A549 > 100 µM | RPMI-8226 > 100 µM | SK-MEL-5 > 100 µM

CCOC(=O)C1C(NC(N)=O)N(Cc2ccccc2)C(=O)N1Cc1ccccc1 (stereo not drawn)
inactive: UACC-62 > 100 µM | CAKI-1 > 100 µM | SNB-19 > 100 µM | 786-0 > 100 µM | UACC-257 > 100 µM | K562 > 100 µM | KM12 > 100 µM | LXFL 529 > 100 µM | MOLT-4 > 100 µM | SF-268 > 100 µM | A549 > 100 µM | RPMI-8226 > 100 µM | SK-MEL-5 > 100 µM

O=[N+]([O-])/C=C/c1cc2ccccc2[nH]1
inactive: RXF 393 13.3 µM | SN12C 17.7 µM | MDA-N 3.24 µM | UACC-62 18.2 µM | CAKI-1 17.4 µM | SNB-19 17.5 µM | 786-0 14.6 µM | MDA-MB-435 2.59 µM | UACC-257 15.4 µM | K562 13.8 µM | KM12 12.2 µM | MOLT-4 15.2 µM | SF-268 16.9 µM | PC-3 15.2 µM | Hs-578T 22.5 µM | A549 17.5 µM | RPMI-8226 2.96 µM | SK-MEL-5 14.7 µM | NCI/ADR-RES 32.1 µM

CC1CC[C@]2(C(=O)O)CCC3(C)C(=CC(=O)C4[C@@]5(C)CCC(=O)C(C)(C)C5CC[C@]43C)[C@@H]2[C@H]1C (stereo partly drawn)
inactive: RXF 393 17.8 µM | SN12C 29.9 µM | UACC-62 13.2 µM | CAKI-1 39.8 µM | SNB-19 40.5 µM | 786-0 31.8 µM | UACC-257 23.2 µM | K562 23.6 µM | KM12 18.7 µM | LXFL 529 18.6 µM | MOLT-4 11.5 µM | SF-268 54.3 µM | A549 24.5 µM | SK-MEL-5 20.7 µM

C=CC1(C)/C(=N\O)C(C)(CC)C(=O)N1O (stereo not drawn)
inactive: RXF 393 > 100 µM | SN12C > 100 µM | UACC-62 > 100 µM | CAKI-1 > 100 µM | SNB-19 > 100 µM | 786-0 > 100 µM | UACC-257 > 100 µM | K562 > 100 µM | KM12 > 100 µM | LXFL 529 > 100 µM | MOLT-4 > 100 µM | SF-268 > 100 µM | A549 > 100 µM | SK-MEL-5 > 100 µM

[N-]=[N+]=NC1=C(c2ccccc2)C(=O)c2cccc3cccc1c23
inactive: RXF 393 19.7 µM | SN12C 29.9 µM | MDA-N 12.2 µM | UACC-62 5.86 µM | CAKI-1 33.6 µM | SNB-19 38.9 µM | 786-0 15.2 µM | MDA-MB-435 68.4 µM | UACC-257 12.9 µM | K562 7.13 µM | KM12 8.02 µM | MOLT-4 2.55 µM | SF-268 22.3 µM | PC-3 8.26 µM | Hs-578T 10.1 µM | A549 11.9 µM | RPMI-8226 7 µM | SK-MEL-5 2.77 µM | NCI/ADR-RES 45.5 µM

CCOC(=O)C(NCc1ccccc1)(NC(=O)c1ccccc1)C(F)(F)F (stereo not drawn)
inactive: RXF 393 64.7 µM | SN12C > 100 µM | MDA-N > 100 µM | UACC-62 > 100 µM | CAKI-1 > 100 µM | SNB-19 > 100 µM | 786-0 > 100 µM | MDA-MB-435 > 100 µM | UACC-257 90.4 µM | K562 60.1 µM | KM12 81.5 µM | MOLT-4 32.3 µM | SF-268 > 100 µM | PC-3 > 100 µM | Hs-578T > 100 µM | A549 > 100 µM | RPMI-8226 33.3 µM | SK-MEL-5 84.9 µM | NCI/ADR-RES 43.3 µM

Cc1cc(OCC(O)CO)ccc1-c1ccccc1 (stereo not drawn)
inactive: RXF 393 21.2 µM | SN12C > 100 µM | UACC-62 > 100 µM | CAKI-1 > 100 µM | SNB-19 > 100 µM | 786-0 > 100 µM | UACC-257 52.5 µM | K562 > 100 µM | KM12 > 100 µM | LXFL 529 > 100 µM | MOLT-4 > 100 µM | SF-268 > 100 µM | A549 > 100 µM | SK-MEL-5 > 100 µM
